The values below come from ChEMBL document CHEMBL1201862, “PubChem BioAssay data set” (2004).

Active and inactive are the calls of the source. Bounds are passed on as bounds.

One experiment in a line: cells. Format: functional, cell-based.
A short description of experiment [1]: HEK-293T viability loss after treatment – luminescence, T-cell screen hits, cytotoxicity control for TCR NF-kB inhibitor project, dose response (AID 489026).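 Note: cells exposed to compound about 14 hours before the viability readout.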 In kind it is functional, cell-based.
The subject of experiment [2] is HEK293. Put plainly: HEK293T cell viability loss, resazurin readout – resazurin fluorescence, cytotoxicity control for NF-kB activator project, SAR follow-up (AID 493251). To be noted: Homo sapiens. Format: functional, cell-based. On the technique in general: Resazurin is reduced to fluorescent resorufin, in cell work by metabolically active cells.
Experiment [3] concerns HEK293. Put plainly: SAR Analysis of small molecule inhibitors of T-cell specific antigen receptor-induced NF-kB activation in a HEK-293T cell line using a luminescence assay - Set 2. [Related pubchem assays (depositor defined):AID435003, AID435012, AID489026]. Format: functional, cell-based. As to conditions: Homo sapiens.
Experiment [4] can be described thus: reduction of Shn3 3'UTR-driven luciferase in osteoblasts – cell-based, Clone20 osteoblasts, firefly luciferase, cherry-picked, dose response (AID 624132).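 Note: firefly luciferase luminescence from reporter carrying the Shn3 3'UTR in osteoblasts.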 Format: functional.
Another experiment deals with HeLa. In words: viability loss in HeLa cells – cell-based, 24 h, cherry-picked samples, cytotoxicity control, dose response (AID 504726).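 Note: potency for cytotoxicity as loss of luminescence signal.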 In kind it is functional. To be noted: Homo sapiens.
The target of a further experiment is ORF 73 (Human herpesvirus 8, UniProt O40947). In words: KSHV LANA DNA-binding disruption – biochemical, fluorescence polarization, cherry-picked samples, dose response (AID 504725).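 Note: fluorescence polarization of a labeled DNA duplex reporting LANA DNA binding; potency is for inhibitors that block LANA binding to the DNA.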 Also on record: species or system Human gammaherpesvirus 8. (Polarisation of emitted light reports the rotation of a fluorescent probe.)
Experiment [5] concerns the target SWI/SNF-related matrix-associated actin-dependent regulator of chromatin subfamily A member 2 (Homo sapiens, UniProt P51531). Put plainly: Luminescence-based cell-based high throughput dose response assay to identify activators of the function of SWI/SNF related, matrix associated, actin dependent regulator of chromatin, subfamily a, member 2 (SMARCA2, BRM). In kind it is functional.

For experiment [6], the target named is Histone-lysine N-methyltransferase NSD2 (Homo sapiens, UniProt O96028). In kind it is biochemical.
Experiment [7] deals with T1, Hexokinase HKDC1 (Homo sapiens, UniProt Q2TB90).
T1 sequence (Q2TB90 whole entry): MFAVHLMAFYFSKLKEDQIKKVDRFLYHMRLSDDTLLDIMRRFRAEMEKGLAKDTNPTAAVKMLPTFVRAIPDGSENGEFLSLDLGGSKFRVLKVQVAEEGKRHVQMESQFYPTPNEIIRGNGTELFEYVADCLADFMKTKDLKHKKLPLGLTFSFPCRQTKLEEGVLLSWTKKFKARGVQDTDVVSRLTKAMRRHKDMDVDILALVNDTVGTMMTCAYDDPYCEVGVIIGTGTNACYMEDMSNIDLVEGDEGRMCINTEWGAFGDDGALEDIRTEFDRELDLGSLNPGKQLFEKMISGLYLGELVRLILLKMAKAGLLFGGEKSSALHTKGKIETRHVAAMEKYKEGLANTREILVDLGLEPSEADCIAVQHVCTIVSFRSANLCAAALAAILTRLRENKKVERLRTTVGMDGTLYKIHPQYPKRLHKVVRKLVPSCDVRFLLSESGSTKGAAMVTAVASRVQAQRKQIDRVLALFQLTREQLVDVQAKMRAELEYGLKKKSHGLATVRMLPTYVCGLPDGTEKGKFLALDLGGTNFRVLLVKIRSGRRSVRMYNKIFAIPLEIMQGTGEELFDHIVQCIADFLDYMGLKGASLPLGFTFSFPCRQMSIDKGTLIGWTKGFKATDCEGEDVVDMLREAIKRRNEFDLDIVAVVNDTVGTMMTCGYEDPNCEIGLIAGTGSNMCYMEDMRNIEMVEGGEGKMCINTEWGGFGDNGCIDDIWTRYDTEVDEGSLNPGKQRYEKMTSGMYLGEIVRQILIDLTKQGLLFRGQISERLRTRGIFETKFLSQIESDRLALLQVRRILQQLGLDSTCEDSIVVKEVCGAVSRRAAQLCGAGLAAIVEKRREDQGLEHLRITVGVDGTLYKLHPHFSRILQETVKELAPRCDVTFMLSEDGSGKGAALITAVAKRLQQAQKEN
In words: inhibition of HKDC1 glucose phosphorylation – biochemical, W721R variant, dose response (AID 504729). In kind it is functional.

The target in experiment [8] is T1, Hexokinase HKDC1. In words: analog inhibition of human HKDC1 activity – biochemical, set 2, SAR follow-up (AID 588355). Format: functional.
Another experiment addresses T2, Caspase-3 (Homo sapiens, UniProt P42574).
T2 sequence (P42574 whole entry): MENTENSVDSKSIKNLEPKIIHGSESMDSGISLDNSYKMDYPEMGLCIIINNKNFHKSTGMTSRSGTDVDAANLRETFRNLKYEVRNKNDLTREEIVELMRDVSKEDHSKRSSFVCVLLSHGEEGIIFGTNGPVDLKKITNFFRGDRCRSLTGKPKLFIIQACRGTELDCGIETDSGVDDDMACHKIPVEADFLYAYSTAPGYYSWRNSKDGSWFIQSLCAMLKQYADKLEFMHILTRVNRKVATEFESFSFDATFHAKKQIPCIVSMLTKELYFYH
Put plainly: activation of caspase-3 zymogen – biochemical, absorbance, dose response (AID 489014).

As usually defined, the EC50 is the concentration at which the effect is half-maximal. The IC50 is the point on the concentration scale where inhibition reaches its midpoint. The term AC50 denotes the concentration giving half of the maximal activity seen.

Chain of SWI/SNF-related matrix-associated actin-dependent regulator of chromatin subfamily A member 2 (P51531 whole entry): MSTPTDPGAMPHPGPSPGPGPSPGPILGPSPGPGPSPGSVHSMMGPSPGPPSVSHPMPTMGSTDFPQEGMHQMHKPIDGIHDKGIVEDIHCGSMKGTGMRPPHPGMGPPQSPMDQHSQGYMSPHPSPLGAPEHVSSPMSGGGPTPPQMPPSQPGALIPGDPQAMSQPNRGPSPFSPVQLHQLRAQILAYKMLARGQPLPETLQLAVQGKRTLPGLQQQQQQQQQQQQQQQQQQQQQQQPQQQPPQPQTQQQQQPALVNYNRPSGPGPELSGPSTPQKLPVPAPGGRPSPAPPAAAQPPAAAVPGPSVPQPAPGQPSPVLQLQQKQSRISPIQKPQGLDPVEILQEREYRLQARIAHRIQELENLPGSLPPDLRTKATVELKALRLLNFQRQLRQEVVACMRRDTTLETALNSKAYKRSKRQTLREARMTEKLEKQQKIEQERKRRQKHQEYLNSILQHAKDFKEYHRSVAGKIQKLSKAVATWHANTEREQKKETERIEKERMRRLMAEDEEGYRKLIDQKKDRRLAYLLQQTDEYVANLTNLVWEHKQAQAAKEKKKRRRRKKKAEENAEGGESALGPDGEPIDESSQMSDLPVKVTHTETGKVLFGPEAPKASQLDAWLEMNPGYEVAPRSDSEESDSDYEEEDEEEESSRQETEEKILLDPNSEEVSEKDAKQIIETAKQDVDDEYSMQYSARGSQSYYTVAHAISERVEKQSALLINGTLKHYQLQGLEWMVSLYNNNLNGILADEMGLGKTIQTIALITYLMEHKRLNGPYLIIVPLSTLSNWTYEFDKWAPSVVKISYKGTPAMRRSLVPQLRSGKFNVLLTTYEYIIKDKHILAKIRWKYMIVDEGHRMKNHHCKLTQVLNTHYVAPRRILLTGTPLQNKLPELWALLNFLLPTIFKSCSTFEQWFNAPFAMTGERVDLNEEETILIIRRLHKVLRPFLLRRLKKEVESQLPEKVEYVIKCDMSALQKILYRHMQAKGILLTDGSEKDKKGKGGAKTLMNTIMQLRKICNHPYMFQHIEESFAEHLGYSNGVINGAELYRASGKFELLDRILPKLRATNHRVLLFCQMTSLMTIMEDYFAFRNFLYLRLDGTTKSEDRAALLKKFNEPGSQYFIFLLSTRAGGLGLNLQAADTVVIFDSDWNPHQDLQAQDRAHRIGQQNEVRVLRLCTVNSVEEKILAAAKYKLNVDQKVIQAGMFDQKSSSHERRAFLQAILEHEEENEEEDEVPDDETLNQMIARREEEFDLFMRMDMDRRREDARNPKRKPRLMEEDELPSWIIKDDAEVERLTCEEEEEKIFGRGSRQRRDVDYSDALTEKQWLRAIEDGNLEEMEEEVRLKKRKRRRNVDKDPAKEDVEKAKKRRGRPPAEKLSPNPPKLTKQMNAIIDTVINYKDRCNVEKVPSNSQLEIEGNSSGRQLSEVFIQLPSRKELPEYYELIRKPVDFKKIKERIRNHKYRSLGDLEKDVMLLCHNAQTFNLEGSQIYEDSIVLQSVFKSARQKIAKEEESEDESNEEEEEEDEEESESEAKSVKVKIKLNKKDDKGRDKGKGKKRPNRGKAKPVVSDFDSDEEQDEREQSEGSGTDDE
Chain of ORF 73 (O40947 whole entry): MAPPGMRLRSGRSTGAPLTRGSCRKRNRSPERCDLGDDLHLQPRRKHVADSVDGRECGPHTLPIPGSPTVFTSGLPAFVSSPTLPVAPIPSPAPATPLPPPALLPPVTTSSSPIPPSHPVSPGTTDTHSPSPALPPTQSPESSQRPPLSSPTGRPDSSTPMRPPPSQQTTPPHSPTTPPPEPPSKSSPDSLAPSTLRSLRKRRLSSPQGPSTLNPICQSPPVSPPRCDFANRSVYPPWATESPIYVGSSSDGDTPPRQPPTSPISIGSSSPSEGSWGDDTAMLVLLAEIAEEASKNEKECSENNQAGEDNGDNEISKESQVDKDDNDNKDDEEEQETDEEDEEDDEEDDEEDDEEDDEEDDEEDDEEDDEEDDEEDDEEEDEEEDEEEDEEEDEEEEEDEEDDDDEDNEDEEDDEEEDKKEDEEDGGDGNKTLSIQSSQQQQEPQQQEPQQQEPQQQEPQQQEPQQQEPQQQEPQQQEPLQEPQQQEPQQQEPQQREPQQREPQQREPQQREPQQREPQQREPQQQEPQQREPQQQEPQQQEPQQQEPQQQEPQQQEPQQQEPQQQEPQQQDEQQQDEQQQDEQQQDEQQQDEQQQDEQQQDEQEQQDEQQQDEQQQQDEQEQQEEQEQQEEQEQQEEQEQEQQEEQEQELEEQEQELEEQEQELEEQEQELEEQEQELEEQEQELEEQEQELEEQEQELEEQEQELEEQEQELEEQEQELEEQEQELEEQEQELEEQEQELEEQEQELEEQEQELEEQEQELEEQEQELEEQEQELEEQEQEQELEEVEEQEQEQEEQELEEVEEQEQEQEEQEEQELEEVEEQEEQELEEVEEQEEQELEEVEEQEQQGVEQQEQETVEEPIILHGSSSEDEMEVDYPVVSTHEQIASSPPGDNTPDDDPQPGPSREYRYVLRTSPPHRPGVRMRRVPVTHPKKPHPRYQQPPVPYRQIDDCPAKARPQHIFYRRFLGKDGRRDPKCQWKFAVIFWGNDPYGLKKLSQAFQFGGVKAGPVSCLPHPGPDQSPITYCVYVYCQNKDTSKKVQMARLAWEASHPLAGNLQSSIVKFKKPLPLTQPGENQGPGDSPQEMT
Chain of Histone-lysine N-methyltransferase NSD2 (O96028 whole entry): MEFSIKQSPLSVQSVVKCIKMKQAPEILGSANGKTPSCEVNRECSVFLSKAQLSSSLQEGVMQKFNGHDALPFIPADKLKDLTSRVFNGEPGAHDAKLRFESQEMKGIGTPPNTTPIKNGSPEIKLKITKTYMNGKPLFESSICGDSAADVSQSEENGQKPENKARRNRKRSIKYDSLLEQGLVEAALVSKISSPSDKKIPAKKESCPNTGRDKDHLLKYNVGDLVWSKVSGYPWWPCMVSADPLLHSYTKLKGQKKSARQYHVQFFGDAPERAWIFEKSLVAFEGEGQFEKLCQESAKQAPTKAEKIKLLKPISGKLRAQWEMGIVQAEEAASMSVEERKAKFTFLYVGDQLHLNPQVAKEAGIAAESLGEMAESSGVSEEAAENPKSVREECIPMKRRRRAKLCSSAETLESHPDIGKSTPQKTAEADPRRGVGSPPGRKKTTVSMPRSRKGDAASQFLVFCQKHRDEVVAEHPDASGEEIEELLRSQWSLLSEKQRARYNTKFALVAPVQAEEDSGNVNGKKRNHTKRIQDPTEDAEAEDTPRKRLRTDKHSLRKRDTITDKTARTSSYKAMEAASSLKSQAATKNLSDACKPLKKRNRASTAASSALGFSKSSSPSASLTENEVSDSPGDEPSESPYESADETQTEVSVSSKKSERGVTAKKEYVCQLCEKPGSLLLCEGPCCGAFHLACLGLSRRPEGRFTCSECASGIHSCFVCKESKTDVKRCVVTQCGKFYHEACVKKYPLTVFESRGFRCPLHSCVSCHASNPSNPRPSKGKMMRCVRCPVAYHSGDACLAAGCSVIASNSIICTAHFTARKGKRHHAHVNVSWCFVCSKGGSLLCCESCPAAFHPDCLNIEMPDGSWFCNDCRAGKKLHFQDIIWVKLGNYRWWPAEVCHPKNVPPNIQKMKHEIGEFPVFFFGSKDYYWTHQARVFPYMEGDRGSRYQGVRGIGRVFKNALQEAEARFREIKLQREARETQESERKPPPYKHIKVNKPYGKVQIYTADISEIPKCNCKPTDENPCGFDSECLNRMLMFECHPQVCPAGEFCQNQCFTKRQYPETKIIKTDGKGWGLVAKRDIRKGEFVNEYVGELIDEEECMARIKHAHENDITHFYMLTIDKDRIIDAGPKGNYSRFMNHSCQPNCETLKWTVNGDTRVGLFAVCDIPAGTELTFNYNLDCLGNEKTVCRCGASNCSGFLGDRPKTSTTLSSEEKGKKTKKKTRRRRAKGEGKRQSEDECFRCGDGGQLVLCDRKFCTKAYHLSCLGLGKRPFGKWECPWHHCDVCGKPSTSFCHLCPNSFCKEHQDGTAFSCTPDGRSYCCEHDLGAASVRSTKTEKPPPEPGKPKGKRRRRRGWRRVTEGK

For `CCCCC(=O)NC(c1ccc(Cl)cc1)c1ccc2cccnc2c1O` (configuration not stated), in “cells”, the EC50 was 3.81 µM (active). In addition, the IC50 in [1] was > 80 µM (inactive); in the experiment on HEK293 [2] it was 23.3 µM (inactive); in the experiment with HEK293 [3], 4.57 µM (active). Moreover, in experiment [4], the AC50 was 0.772 µM (active).

As for `COc1ccc2noc3c2c1C(=O)c1ccccc1-3`, the values for the AC50 (with HeLa; on ORF 73; in experiment [6]) were 74.7 µM (active), 0.228 µM (active) and > 20 µM (inactive), respectively. Also, in experiment [5], the EC50 is > 91.2 µM (inactive).

Turning to `CCc1ccc2c(c1)C(NC(C)=O)C(=O)N2CCN1CCOCC1` (configuration not stated), the half-inhibitory concentration (IC50) was 6.27 µM (active) on Hexokinase HKDC1 [7] and 7.56 µM (active) on Hexokinase HKDC1 [8].

For `O=C(N/N=C/c1ccccc1O)/C(O)=C\C1=NC2(CCCC2)Cc2ccccc21`, the EC50 at Caspase-3 was > 85.3 µM (inactive).
